Data from article PMC10740580, “Benzothiazole-Phthalimide Hybrids as Anti-Breast Cancer and Antimicrobial Agents” (Antibiotics, 2023).

Tests used:
MDA-MB-231 cells = experiment: Wound-healing assay (cell migration); format: cell-based, human; conditions: 3h at its IC50 value
Experimental: Thus, its ability to prevent the migration of MDA-MB-231 was tested by means of the wound-healing assay. Confluent monolayers of cells were cultivated and plated before being scraped to create a wound (see Experimental Section) and treated with compound 3h at concentrations corresponding to its IC50 value (Table 2) for 24 and 48 h, or DMSO (Ctrl). These distinct endpoint times were experimentally defined since MDA-MB-231 cells have a high growth rate and frequently give rise to metastases in vivo. In fact, 48 h were sufficient for the wound closure in the control cells, treated using only the vehicle.
Confluent monolayers of MDA-MB-231 cells formed after the cells were plated on twelve-well plates and grown in full media. […] A cell imager microscope (JuLi Smart fluorescence, NanoEnTek Inc., Seoul, Republic of Korea) was used to take the pictures. The percentage of wound closure used to express the cell migration toward the wounds was: wound closure%=[(At0−At∆h)÷[…]]×100% for which At0 is the area of wound measured immediately after scratching and At∆h is the area of wound measured 48 h after scratching. […] The collected images were analyzed with the JuLI^TM smart fluorescent cell viewer (NanoEnTek Inc., Seoul, Republic of Korea).
Figure 3 Wound-healing assay conducted on MDA-MB-231 cells treated with compound 3h or vehicle (Ctrl, DMSO). […] (B): quantitative analysis of wound closure. […]

BALB/3T3 cells [1] = experiment: ROS protection assay (DCFH-DA, H2O2-induced); format: cell-based, mouse; conditions: 160 μM, BALB/3T3, DCFH-DA
Experimental: (§1) Cells were treated for 24 h, and N-acetylcystein (NAC), a compound well-known for its antioxidant capacity, was used as a reference molecule. […] Compound 3h was able to reduce ROS formation by 61.4 ± 2% at the maximum concentration of 160 μM in the BALB/3T3 cells, as shown by the quantification of fluorescence intensity, proving compound 3h to be a good ROS scavenger.
ROS production was detected using the oxidation-sensitive fluorescent probe 2′,7′-dichlorodihydrofluorescein diacetate (DCFH-DA, D6665; Sigma-Aldrich, St. Louis, MO, USA) by modifying the method described by Wang and James. A black 96-well cell culture plate (Costar, Sigma Aldrich, St. Louis, MO, USA) was used to seed viable cells. After 24 h, the cells were treated with different concentrations of compound 3h (0.1–160 µM) for 1 h at 37 °C in 5% CO2. At the end of the treatment, cells were incubated with 2′,7′-dichlorofluorescein diacetate (DCFH-DA) for 30′, used at a concentration of 25 µM, in 5% CO2. […] The formation of fluorescent dichlorofluorescein (DCF), due to the oxidation of DCFH in the presence of ROS, was read at 530 nm using a microplate reader, the Tecan Infinite M1000 Pro (Tecan, Cernusco S.N., Italy), and DMSO medium was used for control cells. The data were analyzed for statistical significance (p < 0.0001) using a one-way ANOVA, followed by Dunnett’s test performed by GraphPad Prism 9. […]

BALB/3T3 cells [2] = experiment: MTT assay, BALB/3T3 fibroblasts; format: cell-based; conditions: mouse fibroblasts, read-out: IC50 BALB/3T3 (MTT, lack of toxicity)
Experimental: as §1
The four cell lines used in this work (MCF-7, MDA-MB-231, MCF-10A, and 3T3-L1) were obtained from the American Type Culture Collection (ATCC, Manassas, VA, USA). All cell lines were maintained at 37 °C in a humidified atmosphere of 95% air and 5% CO2 and periodically screened for contamination. […]
Cell viability was evaluated by means of the 3-(4,5-dimethylthiazol-2-y1)-2,5-diphenyltetra zolium bromide (MTT, Sigma-Aldrich, Milan, Italy) assay. […] Cells were lysed with DMSO after 2 h of incubation at 37 °C, and optical density at 570 nm was then determined with a microplate reader. Using GraphPad Prism 9 software (GraphPad Inc., San Diego, CA, USA), the mean absorbance for each sample was expressed as a percentage over the control and plotted vs. drug concentrations to establish the IC50 values. […]

Compound: O=C1c2ccccc2C(=O)N1c1nc2ccc(Oc3ccccc3)cc2s1 [3h, 2-[6-Phenoxy-1,3-benzothiazol-2-yl]-1H-isoindole-1,3(2H)-dione]
- prevention of total wound closure, 24 h (MDA-MB-231 cells; 24 h): ~ 23%
- prevention of total wound closure, 48 h (MDA-MB-231 cells; 48 h): ~ 26%
- reduction of ROS formation (BALB/3T3 cells [1]): 61.4 ± 2%
- IC50 (BALB/3T3 cells [2]): > 200 µM
